Among the data in patent publication US7919529B2, “δ-amino-γ-hydroxy-ω-aryl-alkanoic acid amides” (Novartis AG, priority 2003, dated 2011) are IC50 values, retold here.

The assay concerns the target T1, Recombinant human renin (Homo sapiens, UniProt P00797).
T1 construct: made in house; host or cells: Chinese Hamster Ovary cells
T1 sequence (P00797 67-406): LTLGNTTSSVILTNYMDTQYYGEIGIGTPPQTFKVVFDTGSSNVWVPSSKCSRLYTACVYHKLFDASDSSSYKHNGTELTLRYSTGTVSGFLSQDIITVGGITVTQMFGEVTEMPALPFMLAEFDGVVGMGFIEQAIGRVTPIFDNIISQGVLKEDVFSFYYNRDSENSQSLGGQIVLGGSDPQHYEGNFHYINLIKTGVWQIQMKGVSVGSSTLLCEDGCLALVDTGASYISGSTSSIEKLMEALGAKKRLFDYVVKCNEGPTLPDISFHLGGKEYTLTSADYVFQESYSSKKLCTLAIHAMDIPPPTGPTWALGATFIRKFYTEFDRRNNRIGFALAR
The experiment in a line: FRET assay of renin inhibition. The class given is biochemical. On the procedure:
Recombinant human renin (expressed in Chinese Hamster Ovary cells and purified using standard methods) at 4 nM concentration is incubated with test compound at various concentrations for 1 h at RT in 0.1 M Tris-HCl buffer, pH 7.4, containing 0.05 M NaCl, 0.5 mM EDTA and 0.05% CHAPS. Synthetic peptide substrate Arg-Glu(EDANS)-Ile-His-Pro-Phe-His-Leu-Val-Ile_His_Thr-Lys(DABCYL)-Arg9 is added to a final concentration of 2 μM and increase in fluorescence is recorded at an excitation wave-length of 340 nm and at an emission wave-length of 485 nm in a microplate spectro-fluorimeter. IC50 values are calculated from percentage of inhibition of renin activity as a function of test compound concentration (Fluorescence Resonance Energy Transfer, FRET, assay).

For `COCCCOc1cc(C[C@@H](C[C@H](N)[C@@H](O)C[C@H](C(=O)N[C@@H](C)C2CCCCC2)C(C)C)C(C)C)ccc1OC` [Example 29, (2S,4S,5S,7S)-5-Amino-4-hydroxy-2-isopropyl-7-[4-methoxy-3-(3-methoxy-propoxy)-benzyl]-8-methyl-nonanoic acid ((S)-1-cyclohexyl-ethyl)-amide], the IC50 was approximately 0.3 nM.

Broadly, the IC50 is the concentration that gives 50% inhibition.
